{"source": "patent US6495737B1", "about": "“Methods and compositions for improving salicylic acid-independent systemic acquired disease resistance in plants” (Rutgers, The State University of New Jersey, priority 1996, dated 2002)", "key": {"[1]": {"tested_on": "PAL genes", "test": "Northern analysis of PAL gene expression in tobacco leaves injected with chemicals", "type": "in vivo, Nicotiana tabacum cv. Xanthi nc", "details": "1 mM injected into leaf", "experimental": "(§1) One leaf on each plant was injected with water, 1 mM of SA, INA or 4-hydroxybenzoic acid (4HBA). At the times indicated, injected leaves from two similarly treated plants (˜5 g tissue) were harvested and total RNA was extracted. Ten μg of RNA was loaded in each lane. The experiment with all ten probes was done twice.\n(§2) SA and its analog 4-hydroxybenzoic acid were purchased from Sigma. INA was provided by Uwe Conrath and Heinrich Kauss at Universitat Kaiserslautern, Germany. All chemicals were dissolved in water and adjusted a pH of 6.5 with NaOH. They were injected into plants at a concentration of 1 mM. Control plants were injected with distilled water.\nInfected leaves were harvested and frozen in liquid nitrogen and stored at −80° C. until RNA extraction. Total RNA was extracted by phenol/chloroform essentially as described by Berry et al. (1985) with some modifications on the extraction buffer (50 mM Tris.HCl, pH8.0, 20 mM EDTA, 100 mM NaCl, and 2% SDS). For RNA blots, 10 μg of total RNA was loaded in each lane. RNA was separated on 1.2% agarose gels containing 18% formaldehyde and transferred to a Nytran Plus membrane (Schleicher and Schuell, Inc., Keene, N.H.). RNA was fixed to the membrane by cross-linking with UV light and then baked at 80° C. for 2 h. […]"}, "[2]": {"tested_on": "seven groups of SIS genes (ACCO, ACCD, HMGR, APX, PR-3, SAR8.2, PAR-1)", "test": "Northern analysis of SIS gene expression in tobacco leaves injected with chemicals", "type": "in vivo, Nicotiana tabacum cv. Xanthi nc", "details": "1 mM injected into leaf", "experimental": "as §1\nTobacco (Nicotiana tabacum cv. Xanthi nc) plants and NahG-10 seeds, kindly provided by John Ryals at Novartis, Research Triangle, NC, were grown at 20° C. in a growth room with a 14-h day cycle. Two upper, fully expanded leaves of 6-8 week-old plants were infected with TMV strain U1 at a concentration of 1 μg/ml in 50 mM phosphate buffer (pH 7.2) containing carborundum. Control plants were treated with phosphate buffer and carborundum only. Inoculated plants were maintained in a 22° C. growth chamber until harvesting. In temperature shift experiments, plants were immediately put into a 32° C. growth chamber after infection with TMV. After a 48 h incubation period, the temperature was shifted from 32° C. to 22° C.\nas §2\n(§3) Infected leaves were harvested and frozen in liquid nitrogen and stored at −80° C. until RNA extraction. Total RNA was extracted by phenol/chloroform essentially as described by Berry et al. (1985) with some modifications on the extraction buffer (50 mM Tris.HCl, pH8.0, 20 mM EDTA, 100 mM NaCl, and 2% SDS). For RNA blots, 10 μg of total RNA was loaded in each lane. RNA was separated on 1.2% agarose gels containing 18% formaldehyde and transferred to a Nytran Plus membrane (Schleicher and Schuell, Inc., Keene, N.H.). RNA was fixed to the membrane by cross-linking with UV light and then baked at 80° C. for 2 h. Prehybridization and hybridization were performed at 60° C. in 0.5M phosphate buffer (pH 7.2), containing 1% BSA, 7% SDS, and 1 mM EDTA (Church and Gilbert, 1984). The membranes were washed twice in 2×SSC at room temperature for 10 min each, twice in 2×SSC containing 0.5% SDS at 65° C. for 30 min, and twice in 0.1×SSC at room temperature for 30 min each. The probes were prepared from linearized DNA fragments and labeled with ^32p using the random-prime labeling method (Feinberg and Vogelstein, 1984). The PR-1a DNA clone was previously isolated in our lab and the tobacco PAL DNA clone was kindly provided by Michel Legrand and Bernard Fritig, Centre National de la Recherche Scientifique, Strasbourg, France."}, "[3]": {"tested_on": "PR-1 genes", "test": "Northern analysis of PR-1 gene expression in tobacco leaves injected with chemicals", "type": "in vivo, Nicotiana tabacum cv. Xanthi nc", "details": "for induction of PR-1 genes (in words): exogenous treatment of tobacco", "experimental": "as §1, §2, §3\n(§4) 2,4-D, […], and its analog 4HBA were purchased from Sigma. IAA was purchased from GIBCO BRL. INA was provided by Uwe Conrath at Universitat Kaiserslautern, Germany. SA, 4HBA and INA were dissolved in water and adjusted to […] pH of 6.5. They were injected into plants at a concentration of 1 mM with a needle-less syringe. Control plants were injected with distilled water. IAA and 2,4-D was dissolved in 0.2% ethanol.\n(§5) Total RNA was isolated from tobacco tissue by phenol/chloroform as described in Example 1. Ten micrograms of total RNA was analyzed by electrophoresis in a 1.2% agarose gel containing formaldehyde and blotted to Nytran Plus membranes (Schleicher and Schuell). […] Following autoradiography, mRNA levels were quantitated using a Phosphorimager (Molecular Dynamics)."}, "[4]": {"tested_on": "EH-1 gene", "test": "EH-1 gene expression in tobacco leaves injected with chemicals", "type": "in vivo, Nicotiana tabacum", "details": "1 mM injected into leaf", "experimental": "(§6) FIG. 12A: tobacco leaves were injected with water or 1 mM SA, INA or 4HBA. Samples were harvested at the times indicated and total RNA was extracted from treated tissue. Ten μg of RNA was loaded in each lane. FIG. 12B: quantification of EH-1 transcripts corresponding to the data from FIG. 12A. The method of quantification is described in FIG. 9. The experiments were done twice. FIG. 12C: cell cultures were subcultured for 2 days in hormone-free medium to deplete hormones. Water, 2,4-D or IAA were then added to the media at 100 μM. Cells were collected at the times indicated.\nas §4, §5"}, "[5]": {"tested_on": "potato suspension cells", "details": "cited from earlier work"}, "[6]": {"tested_on": "fungal pathogen", "details": "cited from earlier work; for effectiveness at protecting / inducing resistance to fungal infection in barley: highly susceptible barley cultivar"}, "[7]": {"tested_on": "auxin-inducible glutathione S-transferase gene, GNT35", "test": "GNT35 gene expression in tobacco suspension cells treated with auxins (positive control)", "type": "cell-based", "details": "100 μM, hormone-free medium 2 days", "experimental": "as §6\n(§7) Cell suspension was treated with auxins as described by Xiang et al (1996). Cell cultures were grown in hormone-free medium for 2 days to deplete hormones in the medium. IAA (100 μM) and 2,4-D (100 μM) were added to the suspension. Cells were harvested at 0, 2, 6 and 12 h after addition of auxins. Water was added to the control.\nas §5, with “Schuell). Blots were hybridized with [alpha-^32P]dCTP-labeled probes prepared by the random-priming method with a oligo labelling kit (Pharmacia).” for “Schuell).”"}, "[8]": {"tested_on": "Arabidopsis sEH gene", "details": "in vivo; cited from earlier work"}, "[9]": {"tested_on": "EH-1 gene", "test": "EH-1 gene expression in tobacco suspension cells treated with auxins", "type": "cell-based", "details": "100 μM, hormone-free medium 2 days, 0-12 h", "experimental": "as §6, §7\nas §5, with “Schuell). Blots were hybridized with [alpha-^32P]dCTP-labeled probes prepared by the random-priming method with a oligo labelling kit (Pharmacia).” for “Schuell).”"}}, "note": "Entries after “also recorded” stand apart in the source; their conditions may differ.", "data": [{"smiles": "O=C(O)c1cc(Cl)nc(Cl)c1", "note": "[INA, 2,6-dichloroisonicotinic acid]", "values": [{"measurement": "induction of PAL gene expression (in words)", "setting": "[1]", "result": "neither SA nor INA can induce PAL gene expression"}, {"measurement": "activation of the seven groups of SIS genes (in words)", "setting": "[2]", "result": "induced by INA, generally in a transient manner; also recorded: rapid and transient activation of six of the seven groups"}, {"measurement": "induction of PR-1 genes (in words)", "setting": "[3]", "result": "slow and sustained"}, {"measurement": "EH-1 transcript accumulation (in words)", "setting": "[4]", "result": "induced a transient accumulation of EH-1 transcripts; also recorded: accumulate rapidly and transiently"}]}, {"smiles": "O=C(O)CCCCCCCC(O)C(O)CCCCCCCCO", "note": "(stereo not shown) [9,10,18-trihydroxystearic acid]", "values": [{"measurement": "alkalinization of media", "setting": "[5]", "result": "to a lesser extent than HESA"}, {"measurement": "effectiveness at protecting / inducing resistance to fungal infection in barley", "setting": "[6]", "result": "nearly as effective"}, {"measurement": "toxicity relative to HESA", "setting": "[6]; in vivo", "result": "less toxic than HESA"}]}, {"smiles": "O=C(O)COc1ccc(Cl)cc1Cl", "note": "[2,4-D, 2,4-dichlorophenoxy acetic acid]", "values": [{"measurement": "induction of GNT35 expression (in words)", "setting": "[7]", "result": "rapidly induced"}, {"measurement": "induction of Arabidopsis sEH gene", "setting": "[8]", "result": "induced by auxins"}, {"measurement": "induction of EH-1 expression (in words)", "setting": "[9]", "result": "Little or no induction"}]}, {"smiles": "O=C(O)c1ccccc1O", "note": "[SA, salicylic acid]", "values": [{"measurement": "induction of PAL gene expression (in words)", "setting": "[1]", "result": "little, if any, induction of PAL; also recorded: neither SA nor INA can induce PAL gene expression"}, {"measurement": "activation of the seven groups of SIS genes (in words)", "setting": "[2]", "result": "induced their expression transiently; also recorded: rapid and transient activation of six of the seven groups"}, {"measurement": "time post treatment by which SIS mRNA levels had declined", "setting": "[2]", "result": "≤ 24", "unit": "h"}, {"measurement": "time post treatment by which mRNA levels for all SIS genes had peaked", "setting": "[2]", "result": "≤ 12", "unit": "h"}, {"measurement": "time after injection by which six of the seven groups of SIS genes were induced", "setting": "[2]; Northern blot", "result": "4 to 6", "unit": "h"}, {"measurement": "time after treatment at which increased expression of PAR-1 was detected", "setting": "[2]; this experiment", "result": 12, "unit": "h"}, {"measurement": "time post treatment at which PR-1 mRNAs were first detected", "setting": "[3]; 1 mM injected into leaf, Example 1", "result": 12, "unit": "h"}, {"measurement": "time post treatment at which PR-1 transcripts were first detected", "setting": "[3]; 1 mM injected into leaf, Example 2", "result": 12, "unit": "h"}, {"measurement": "induction of PR-1 genes (in words)", "setting": "[3]", "result": "slow and sustained"}]}, {"smiles": "O=C(O)Cc1c[nH]c2ccccc12", "note": "[IAA, indole-3-acetic acid]", "values": [{"measurement": "induction of GNT35 expression (in words)", "setting": "[7]", "result": "rapidly induced"}, {"measurement": "induction of Arabidopsis sEH gene", "setting": "[8]", "result": "induced by auxins"}, {"measurement": "induction of EH-1 expression (in words)", "setting": "[9]", "result": "Little or no induction"}]}, {"smiles": "O=C(O)CCCCCCCC1OC1CCCCCCCCO", "note": "(stereo not drawn) [HESA, cis-9,10-epoxy-18-hydroxystearic acid]", "values": [{"measurement": "alkalinization of media", "setting": "[5]", "result": "caused the rapid alkalinization"}, {"measurement": "effectiveness at protecting / inducing resistance to fungal infection in barley", "setting": "[6]", "result": "most effective"}]}, {"smiles": "O=C(O)c1ccc(O)cc1", "note": "[4HBA, 4-hydroxybenzoic acid]", "values": [{"measurement": "activation of the seven groups of SIS genes (in words)", "setting": "[2]", "result": "failed to activate these genes"}]}]}
